Key:
Raji = format: cell-based
Daudi = format: cell-based
HBL-1 = format: cell-based
CD20 = CD20 (Homo sapiens, UniProt P11836); conditions: at 37° C.; cited from earlier work
SU-DHL-4 = format: cell-based
[1] = tested on: Burkitt's lymphoma (ST-486) cells; format: cell-based; conditions: 72 hours
Procedure: The cytotoxicity of Molecule 001 in combination with lenalidomide was also tested in Burkitt's lymphoma (ST-486) cells. The cells were incubated with Molecule 001 only, lenalidomide only, or a combination of Molecule 001 and lenalidomide. Cell viability was measured 72 hours after treatment using the Promega® Cell TiterGlo® assay (FIG. 19E).

lymphoma (Daudi) cells = format: cell-based
Procedure: The cytotoxicity of Molecule 001 in combination with lenalidomide was also tested in vitro, in lymphoma (Daudi) cells. […] Following this, Molecule 001 was added and viability was measured after an additional 3 days, using the Promega® Cell Titer-Gb® assay (FIG. 19C).

CD20, sequence (P11836 whole entry): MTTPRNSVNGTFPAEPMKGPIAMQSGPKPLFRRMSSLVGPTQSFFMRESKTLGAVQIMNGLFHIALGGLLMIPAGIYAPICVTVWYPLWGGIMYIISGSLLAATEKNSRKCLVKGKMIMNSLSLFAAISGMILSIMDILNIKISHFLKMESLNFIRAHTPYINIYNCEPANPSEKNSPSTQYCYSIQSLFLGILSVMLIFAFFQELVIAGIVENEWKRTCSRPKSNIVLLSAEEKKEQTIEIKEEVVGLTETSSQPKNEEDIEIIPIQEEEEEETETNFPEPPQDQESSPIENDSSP

CC[C@]1(O)C[C@H]2CN(CCc3c([nH]c4ccccc34)[C@@](C(=O)OC)(c3cc4c(cc3OC)N(C=O)[C@H]3[C@@](O)(C(=O)OC)[C@H](OC(C)=O)[C@]5(CC)C=CCN6CC[C@]43[C@@H]65)C2)C1 [Vincristine]
In vitro responses to Molecule 001 in combination with chemotherapy (Raji): Synergistic

COc1cccc2c1C(=O)c1c(O)c3c(c(O)c1C2=O)C[C@@](O)(C(=O)CO)C[C@@H]3O[C@H]1C[C@H](N)[C@H](O)[C@H](C)O1 [Doxorubicin]
In vitro responses to Molecule 001 in combination with chemotherapy (Raji): Synergistic
In vitro responses to Molecule 001 in combination with chemotherapy (Daudi): Mixed
In vitro responses to Molecule 001 in combination with chemotherapy (HBL-1): Synergistic

rituximab
time to maximal cellular internalization (CD20): 16 to 18 h

N.N.[Cl][Pt][Cl] [Cisplatin]
In vitro responses to Molecule 001 in combination with chemotherapy (Raji): Synergistic
In vitro responses to Molecule 001 in combination with chemotherapy (Daudi): Mixed
In vitro responses to Molecule 001 in combination with chemotherapy (SU-DHL-4): Mixed

Nc1cccc2c1CN(C1CCC(=O)NC1=O)C2=O (stereo not shown) [lenalidomide]
effect of lenalidomide on the activity of Molecule 001 [1]: no effect on the activity of Molecule 001
effect of lenalidomide on cell viability ([1]; concentrations used in this assay): little effect on cell viability
toxicity of Molecule 001 on cells pre-treated with lenalidomide (isobologram) (lymphoma (Daudi) cells; Daudi cells pre-treated with lenalidomide for 24 hours, then Molecule 001, viability after additional 3 days): synergistic toxicity
potency of the combination of Molecule 001 and LEN against lymphoma cells (lymphoma (Daudi) cells; versus either agent alone): significantly greater potency against lymphoma cells than either agent alone

Cn1c(CCCC(=O)O)nc2cc(N(CCCl)CCCl)ccc21 [Bendamustine]
In vitro responses to Molecule 001 in combination with chemotherapy (Daudi): Synergistic
In vitro responses to Molecule 001 in combination with chemotherapy (HBL-1): Synergistic
In vitro responses to Molecule 001 in combination with chemotherapy (SU-DHL-4): Synergistic

Nc1ccn([C@@H]2O[C@H](CO)[C@@H](O)C2(F)F)c(=O)n1 [Gemcitabine]
In vitro responses to Molecule 001 in combination with chemotherapy (Raji): Synergistic
